Assay results taken from publication PMC4620744 (Molecular cell, 2015).
Where no end group is shown, it is not given here.

Tests used:
H2A R78E H2A-H2B^30-130 = test: ITC binding to H2A-H2B^30-130 bearing H2A R78E; set-up: species or system Saccharomyces cerevisiae
H2A R78A H2A-H2B^30-130 = test: ITC binding to H2A-H2B^30-130 bearing H2A R78A; set-up: species or system Saccharomyces cerevisiae
H2A-H2B^30-130 H2B M62E = test: ITC binding to H2A-H2B^30-130 bearing H2B M62E; set-up: species or system Saccharomyces cerevisiae
[1] = test system: H2A-H2B^30-130 bearing H2B Y45A; test: ITC binding to H2A-H2B^30-130 bearing H2B Y45A; set-up: species or system Saccharomyces cerevisiae
[2] = test system: H2A-H2B^30-130 bearing H2B M62A; test: ITC binding to H2A-H2B^30-130 bearing H2B M62A; set-up: species or system Saccharomyces cerevisiae
H2A.Z-H2B = test: EMSA of full-length FACT with H2A.Z-H2B; format: binding, Saccharomyces cerevisiae
H2A-H2B M62E [3] = test: EMSA binding of full-length FACT to H2A-H2B M62E; set-up: species or system Saccharomyces cerevisiae; conditions: not shown
full-length H2A-H2B = full-length H2A-H2B (Saccharomyces cerevisiae, UniProt P02293+P04911); test: ITC binding to full-length H2A-H2B
Sequence of full-length H2A-H2B (P04911 2-132 limits assumed): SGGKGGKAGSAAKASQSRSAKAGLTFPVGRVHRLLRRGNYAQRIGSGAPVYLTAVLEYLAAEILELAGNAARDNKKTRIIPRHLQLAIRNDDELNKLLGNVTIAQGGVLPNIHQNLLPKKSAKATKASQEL
Sequence of full-length H2A-H2B (P02293 2-131 limits assumed): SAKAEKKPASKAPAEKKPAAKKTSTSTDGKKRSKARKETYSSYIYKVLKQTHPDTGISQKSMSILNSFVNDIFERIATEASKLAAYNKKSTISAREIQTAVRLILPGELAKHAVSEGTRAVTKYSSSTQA

H2A-H2B M62E [4] = test: ITC binding of full-length FACT to H2A-H2B M62E; set-up: species or system Saccharomyces cerevisiae

Substance: Spt16^958-990: Spt16 peptide of residues 958-990 used for crystal structure and histone mutant binding (DDEASDESEEEVSEYEASEDDVSDESAFSEDEE)
- binding to H2A R78E histone mutant (in words) (H2A R78E H2A-H2B^30-130): affinity was completely lost
- binding to H2A R78A histone mutant (in words) (H2A R78A H2A-H2B^30-130): little effect on binding
- binding to H2B M62E histone mutant (in words) (H2A-H2B^30-130 H2B M62E): reduced binding to undetectable levels

Substance: DESVDEDFQVSSDNDADEVAEEFDS [Pob3^505-529]
- reduction in binding (fold) with H2B Y45A relative to wild-type histones [1]: 12 fold
- reduction in binding (fold) with H2B M62A relative to wild-type histones [2]: 9 fold

Substance: full-length FACT: full-length S. cerevisiae Spt16-Pob3 heterodimer
- discrimination between H2A.Z-H2B and H2A-H2B by EMSA (in words) (H2A.Z-H2B): does not differentiate between H2A.Z-H2B and H2A-H2B
- binding of full-length FACT to H2A-H2B M62E by EMSA (in words) (H2A-H2B M62E [3]): diminished binding
- stoichiometry of binding to H2A-H2B (full-length H2A-H2B; 25 °C, pH 7.4, 200 mM NaCl): one full-length Spt16-Pob3 heterodimer bound two H2A-H2B dimers
- binding of full-length FACT to H2A-H2B M62E by ITC (in words) (H2A-H2B M62E [4]): severe reduction in the binding

Substance: Spt16-C^958-999: Spt16 residues 958-999 (DDEASDESEEEVSEYEASEDDVSDESAFSEDEEGSEVDDDIS)
- binding to H2A-H2B (in words) (full-length H2A-H2B; 25 °C, pH 7.4, 200 mM NaCl): recapitulates the full H2A-H2B binding activity of Spt16

Substance: Pob3: Pob3 subunit of FACT
- Kd (full-length H2A-H2B; read-out: dissociation constant (KD) for H2A-H2B, 25 °C, 25 mM Na-K phosphate pH 7.4, 200 mM NaCl, at least triplicate): ~1000 nM
